Data published in PubChem BioAssay AID1259407 (Chemical Carcinogenesis Research Information System (CCRIS), 2018).
Calls of active or inactive are those of the source. The rule behind the calls is not given here.

Test system: CCRIS mutagenicity, Ames/micronucleus/aberration tests
Test: CCRIS mutagenicity studies

## Nc1c2ccccc2nc2ccccc12
Test System: AMES SALMONELLA TYPHIMURIUM, Strain/Indicator: TA97A, Metabolic Activation: NONE, Method: STANDARD PLATE
  mutagenic call: active; positive
Test System: AMES SALMONELLA TYPHIMURIUM, Strain/Indicator: TA98, Metabolic Activation: HAMSTER, LIVER, S-9, AROCLOR 1254 (10%), Method: PREINCUBATION
  mutagenic call: inactive; negative
Test System: AMES SALMONELLA TYPHIMURIUM, Strain/Indicator: TA98, Metabolic Activation: NONE, Method: FLUCTUATION (MICROTITER)
  mutagenic call: inactive; negative
Test System: AMES SALMONELLA TYPHIMURIUM, Strain/Indicator: TA98, Metabolic Activation: NONE, Method: PREINCUBATION
  mutagenic call: inactive; negative
Test System: AMES SALMONELLA TYPHIMURIUM, Strain/Indicator: TA98, Metabolic Activation: NONE, Method: SPIRAL ASSAY
  mutagenic call: inactive; negative
Test System: AMES SALMONELLA TYPHIMURIUM, Strain/Indicator: TA98, Metabolic Activation: NONE, Method: STANDARD PLATE
  mutagenic call: inactive; negative
Test System: AMES SALMONELLA TYPHIMURIUM, Strain/Indicator: TA98, Metabolic Activation: RAT, LIVER, S-9, AROCLOR 1254 (10%), Method: PREINCUBATION
  mutagenic call: inactive; negative
Test System: AMES SALMONELLA TYPHIMURIUM, Strain/Indicator: TA98, Metabolic Activation: RAT, LIVER, S-9, AROCLOR 1254, Method: SPIRAL ASSAY
  mutagenic call: inactive; negative
Test System: AMES SALMONELLA TYPHIMURIUM, Strain/Indicator: TA98, Metabolic Activation: RAT, LIVER, S-9, AROCLOR 1254, Method: STANDARD PLATE
  mutagenic call: inactive; negative
Test System: AMES SALMONELLA TYPHIMURIUM, Strain/Indicator: TA100, Metabolic Activation: HAMSTER, LIVER, S-9, AROCLOR 1254 (10%), Method: PREINCUBATION
  mutagenic call: inactive; negative
Test System: AMES SALMONELLA TYPHIMURIUM, Strain/Indicator: TA100, Metabolic Activation: NONE, Method: PREINCUBATION
  mutagenic call: inactive; negative
Test System: AMES SALMONELLA TYPHIMURIUM, Strain/Indicator: TA100, Metabolic Activation: NONE, Method: SPIRAL ASSAY
  mutagenic call: inactive; negative
Test System: AMES SALMONELLA TYPHIMURIUM, Strain/Indicator: TA100, Metabolic Activation: NONE, Method: STANDARD PLATE
  mutagenic call: inactive; negative
Test System: AMES SALMONELLA TYPHIMURIUM, Strain/Indicator: TA100, Metabolic Activation: RAT, LIVER, S-9, AROCLOR 1254 (10%), Method: PREINCUBATION
  mutagenic call: inactive; negative
Test System: AMES SALMONELLA TYPHIMURIUM, Strain/Indicator: TA100, Metabolic Activation: RAT, LIVER, S-9, AROCLOR 1254, Method: SPIRAL ASSAY
  mutagenic call: inactive; negative
Test System: AMES SALMONELLA TYPHIMURIUM, Strain/Indicator: TA100, Metabolic Activation: RAT, LIVER, S-9, AROCLOR 1254, Method: STANDARD PLATE
  mutagenic call: inactive; negative
Test System: AMES SALMONELLA TYPHIMURIUM, Strain/Indicator: TA1535, Metabolic Activation: HAMSTER, LIVER, S-9, AROCLOR 1254 (10%), Method: PREINCUBATION
  mutagenic call: inactive; negative
Test System: AMES SALMONELLA TYPHIMURIUM, Strain/Indicator: TA1535, Metabolic Activation: NONE, Method: PREINCUBATION
  mutagenic call: inactive; negative
Test System: AMES SALMONELLA TYPHIMURIUM, Strain/Indicator: TA1535, Metabolic Activation: NONE, Method: SPIRAL ASSAY
  mutagenic call: inactive; negative
Test System: AMES SALMONELLA TYPHIMURIUM, Strain/Indicator: TA1535, Metabolic Activation: NONE, Method: STANDARD PLATE
  mutagenic call: inactive; negative
Test System: AMES SALMONELLA TYPHIMURIUM, Strain/Indicator: TA1535, Metabolic Activation: RAT, LIVER, S-9, AROCLOR 1254 (10%), Method: PREINCUBATION
  mutagenic call: inactive; negative
Test System: AMES SALMONELLA TYPHIMURIUM, Strain/Indicator: TA1535, Metabolic Activation: RAT, LIVER, S-9, AROCLOR 1254, Method: SPIRAL ASSAY
  mutagenic call: inactive; negative
Test System: AMES SALMONELLA TYPHIMURIUM, Strain/Indicator: TA1535, Metabolic Activation: RAT, LIVER, S-9, AROCLOR 1254, Method: STANDARD PLATE
  mutagenic call: inactive; negative
Test System: AMES SALMONELLA TYPHIMURIUM, Strain/Indicator: TA1535, Metabolic Activation: RAT, LIVER, S-9, TETRACHLOROBIPHENYL, Method: PREINCUBATION
  mutagenic call: inactive; negative
Test System: AMES SALMONELLA TYPHIMURIUM, Strain/Indicator: TA1537, Metabolic Activation: HAMSTER, LIVER, S-9, AROCLOR 1254 (10%), Method: PREINCUBATION
  mutagenic call: active; positive
Test System: AMES SALMONELLA TYPHIMURIUM, Strain/Indicator: TA1537, Metabolic Activation: NONE
  mutagenic call: active; positive
Test System: AMES SALMONELLA TYPHIMURIUM, Strain/Indicator: TA1537, Metabolic Activation: NONE, Method: PREINCUBATION
  mutagenic call: active; positive
Test System: AMES SALMONELLA TYPHIMURIUM, Strain/Indicator: TA1537, Metabolic Activation: NONE, Method: SPIRAL ASSAY
  mutagenic call: active; positive
Test System: AMES SALMONELLA TYPHIMURIUM, Strain/Indicator: TA1537, Metabolic Activation: NONE, Method: STANDARD PLATE
  mutagenic call: active; positive
Test System: AMES SALMONELLA TYPHIMURIUM, Strain/Indicator: TA1537, Metabolic Activation: RAT LIVER S-9, AROCLOR 1254, Method: FLUCTUATION (MICROTITER)
  mutagenic call: active; positive
Test System: AMES SALMONELLA TYPHIMURIUM, Strain/Indicator: TA1537, Metabolic Activation: RAT, LIVER, S-9, AROCLOR 1254 (10%), Method: PREINCUBATION
  mutagenic call: active; positive
Test System: AMES SALMONELLA TYPHIMURIUM, Strain/Indicator: TA1537, Metabolic Activation: RAT, LIVER, S-9, AROCLOR 1254, Method: SPIRAL ASSAY
  mutagenic call: active; positive
Test System: AMES SALMONELLA TYPHIMURIUM, Strain/Indicator: TA1537, Metabolic Activation: RAT, LIVER, S-9, AROCLOR 1254, Method: STANDARD PLATE
  mutagenic call: active; positive
Test System: AMES SALMONELLA TYPHIMURIUM, Strain/Indicator: TA1537, Metabolic Activation: RAT, LIVER, S-9, TETRACHLOROBIPHENYL, Method: PREINCUBATION
  mutagenic call: active; positive
Test System: AMES SALMONELLA TYPHIMURIUM, Strain/Indicator: TA1538, Metabolic Activation: NONE, Method: PREINCUBATION
  mutagenic call: inactive; negative
Test System: AMES SALMONELLA TYPHIMURIUM, Strain/Indicator: TA1538, Metabolic Activation: RAT, LIVER, S-9, TETRACHLOROBIPHENYL, Method: PREINCUBATION
  mutagenic call: inactive; negative
Test System: AMES SALMONELLA TYPHIMURIUM, Strain/Indicator: TA1977, Metabolic Activation: NONE, Method: PREINCUBATION
  mutagenic call: active; positive
Test System: AMES SALMONELLA TYPHIMURIUM, Strain/Indicator: TA1977, Metabolic Activation: RAT, LIVER, S-9, TETRACHLOROBIPHENYL, Method: PREINCUBATION
  mutagenic call: active; positive
Test System: AMES SALMONELLA TYPHIMURIUM, Strain/Indicator: TA7001, Metabolic Activation: NONE, Method: FLUCTUATION (MICROTITER)
  mutagenic call: inactive; negative
Test System: AMES SALMONELLA TYPHIMURIUM, Strain/Indicator: TA7002, Metabolic Activation: NONE, Method: FLUCTUATION (MICROTITER)
  mutagenic call: inactive; negative
Test System: AMES SALMONELLA TYPHIMURIUM, Strain/Indicator: TA7003, Metabolic Activation: NONE, Method: FLUCTUATION (MICROTITER)
  mutagenic call: inactive; negative
Test System: AMES SALMONELLA TYPHIMURIUM, Strain/Indicator: TA7004, Metabolic Activation: NONE, Method: FLUCTUATION (MICROTITER)
  mutagenic call: inactive; negative
Test System: AMES SALMONELLA TYPHIMURIUM, Strain/Indicator: TA7005, Metabolic Activation: NONE, Method: FLUCTUATION (MICROTITER)
  mutagenic call: inactive; negative
Test System: AMES SALMONELLA TYPHIMURIUM, Strain/Indicator: TA7006, Metabolic Activation: NONE, Method: FLUCTUATION (MICROTITER)
  mutagenic call: inactive; negative
Test System: CHINESE HAMSTER OVARY, Strain/Indicator: CHO-K1-BH4 (HGPRT), Metabolic Activation: NONE, Method: SUSPENSION/PLATE
  mutagenic call: inactive; negative
Test System: CHINESE HAMSTER OVARY, Strain/Indicator: CHO-K1-BH4 (HGPRT), Metabolic Activation: RAT, LIVER, S-9, AROCLOR, Method: SUSPENSION/PLATE
  mutagenic call: inactive; negative
Test System: CHINESE HAMSTER V-79, Strain/Indicator: V-79/6-THIOGUANINE, Metabolic Activation: NONE, Method: FLASK ASSAY
  mutagenic call: inactive; negative
Test System: E. COLI, Strain/Indicator: WP2 UVRA, Metabolic Activation: HAMSTER, LIVER, S-9, AROCLOR 1254, Method: STANDARD PLATE
  mutagenic call: inactive; negative
Test System: E. COLI, Strain/Indicator: WP2 UVRA, Metabolic Activation: HAMSTER, LIVER, S-9, Method: STANDARD PLATE
  mutagenic call: inactive; negative
Test System: E. COLI, Strain/Indicator: WP2 UVRA, Metabolic Activation: MOUSE, LIVER, S-9, AROCLOR 1254, Method: STANDARD PLATE
  mutagenic call: inactive; negative
Test System: E. COLI, Strain/Indicator: WP2 UVRA, Metabolic Activation: MOUSE, LIVER, S-9, Method: STANDARD PLATE
  mutagenic call: inactive; negative
Test System: E. COLI, Strain/Indicator: WP2 UVRA, Metabolic Activation: NONE, Method: STANDARD PLATE
  mutagenic call: inactive; negative
Test System: E. COLI, Strain/Indicator: WP2 UVRA, Metabolic Activation: RAT, LIVER, S-9, AROCLOR 1254, Method: STANDARD PLATE
  mutagenic call: inactive; negative
Test System: E. COLI, Strain/Indicator: WP2 UVRA, Metabolic Activation: RAT, LIVER, S-9, Method: STANDARD PLATE
  mutagenic call: inactive; negative
Test System: E. coli, Strain/Indicator: KKi (wild-type), KK5 (recA56) and KK6 (uvrA6), Metabolic Activation: None, Method: Viable cells scored on LB-plates after 18 hr incubation
  mutagenic call: active; positive in all 3 strains (most common mutations minus frameshifts in repetitive
Test System: UDS RAT HEPATOCYTES, Strain/Indicator: THY INCORP, Metabolic Activation: NONE, Method: AUTORADIOGRAPHY (SERUM-FREE MEDIA)
  mutagenic call: inactive; negative
